Laboratory results published in paper PMC7177638 (International Journal of Molecular Sciences, 2020).

Legend:
[1] = Cyclic voltammetry, cathodic reduction potential in aqueous solution; type: physicochemical; conditions: values normalized vs. SCE; phosphate buffer pH 7.4, 5 mM NaCl, 5·10^−4 M complex, scan rate 0.020 V s^−1
Experimental: The electrochemical characterization of compounds 1–6, performed by using cyclic voltammetry (CV), was carried out with the aim of determining the cathodic reduction potentials in aqueous solution (Ep^c).
Cyclic voltammetry (CV) measurements were carried out with a potentiostat CHI 1230B (CH Instruments, Inc., Austin, TX, USA) in a standard three-electrode electrochemical cell. The working electrode was a glassy carbon (GC) electrode, the reference electrode was a KCl-saturated Ag/AgCl and the counter was a Pt sheet. The GC electrode was carefully polished with alumina powder, then rinsed with distilled water and dried, to obtain a reproducible surface for all the experiments. All the measurements, conducted in triplicate, were carried out in buffered aqueous solutions containing the Pt(IV) compound at a concentration of 5·10^−4 M in 10 mL phosphate buffer (PB, pH = 7.4, I = 0.1) and 5 mM NaCl as supporting electrolyte. A blank solution (without Pt(IV) complex) was also tested. All the peak potentials were measured with a scan rate of 0.020 V s^−1; the initial potential was chosen equal to the open-circuit potential and the scan direction was negative. All the CV plots were acquired after an equilibration time of 2 min in order to make the GC surface reproducible.

[2] = tested on: human A431 cancer cell spheroids; experiment: Cytotoxicity towards 3D spheroids, acid phosphatase (APH) assay; type: cell-based; conditions: A431 3D spheroids, 72 h; for IC50: APH assay
From the text: The remarkable cell-killing effect observed against human A431 squamous cervical carcinoma two-dimensional (2D) cultured cells prompted us to evaluate the in vitro antitumor activity of compounds 1–6 on three-dimensional (3D) cell cultures. As opposed to 2D monolayer cultures, cells growing in 3D culture systems form spheroids that comprise cells in various stages. […] Such cellular heterogeneity resembles that of in vivo tumors, making 3D cell cultures more predictive than conventional 2D monolayer cultures in screening antitumor drugs.
Spheroid cultures were obtained by seeding 2.5 × 10^3 A431 cancer cells/well in a round bottom non-treated tissue culture 96 well-plate (Greiner Bio-one, Kremsmünster, Austria) in phenol red free RPMI-1640 medium (Sigma Chemical Co.) containing 10% fetal calf serum (FCS) and supplemented with 20% methyl cellulose stock solution.
An APH modified assay was used for determining cell viability in 3D spheroids, as previously described. IC50 values were calculated with a four parameter logistic (4-PL) model.

[3] = tested on: LoVo-OXP cancer cells; experiment: MTT cytotoxicity test, 72 h, oxaliplatin-resistant cells; type: cell-based, human; conditions: for IC50: LoVo OXP
From the text: Human colon (HCT-15 and LoVo) and pancreatic (PSN-1) carcinoma cell lines were obtained from the American Type Culture Collection (ATCC, RocKville, MD). The 2008 human ovarian cancer cells were kindly provided by Prof. G. Marverti (Dept. of Biomedical Science of Modena University, Italy). Human cervical carcinoma (A431) cells were kindly provided by Prof. F. Zunino (Division of Experimental Oncology B, Istituto Nazionale dei Tumori, Milan, Italy). […] Cell lines were maintained in the logarithmic phase at 37 °C in a 5% carbon dioxide atmosphere using RPMI-1640 or F-12 culture medium (Euroclone) containing 10% fetal calf serum (Euroclone, Milan, Italy), antibiotics (50 units per mL penicillin and 50 μg mL^−1 streptomycin), and 2 mM L-glutamine.
The growth inhibitory effect toward the tumor cell lines was evaluated by the MTT test. Briefly, 3-8·10^3 cells/well, depending upon the growth characteristics of the cell lines, were seeded in 96-well microplates in growth medium (100 µL) and then incubated at 37 °C in a 5% carbon dioxide atmosphere. After 24 h, the medium was removed and replaced with a fresh one containing the compound to be tested at the appropriate concentration. Triplicate cultures were established for each treatment. After 72 h, each well was treated with 10 µL of a 5 mg·mL^−1 MTT (3-(4,5-dimethylthiazol-2-yl)-2,5-diphenyltetrazolium bromide) saline solution and, after 5 h of incubation, 100 µL of a sodium dodecylsulfate (SDS) solution in HCl 0.01 M were added. Following an overnight incubation, the inhibition of cell growth induced by the tested complexes was evaluated by measuring the absorbance of each well at 570 nm using a Bio-Rad 680 microplate reader (Bio-Rad Laboratories S.r.l., Segrate (MI), Italy).

[4] = tested on: A431 cells; experiment: Cellular accumulation of Pt (GF-AAS); type: cell-based, human; conditions: 24 h, 0.5 μM
Experimental: It is clearly recognized that the antitumor activity of platinum-based anticancer drugs depends on the ability of compounds to accumulate into cancer cells and to bind to nuclear DNA, thus inducing transcription inhibition and cell death. Therefore, we investigated the cellular uptake as well as the DNA binding ability of 1–6 in human A431cervical cancer cells. Cells were treated for 24 h with 0.5 μM of 1–6 or CDDP and the total cellular and DNA-bound platinum contents were quantified using GF–AAS analysis. The results, expressed as ng of metal per 10^6 cells, in the case of cellular uptake (A) and as pg of metal per μg of DNA, in the case of DNA-bound platinum (B) are summarized in Figure 9.
A431 cells (2·10^6) were seeded in 75 cm^2 flasks in growth medium (20 mL). After 24 h, the medium was replaced and the cells incubated for 24 h in the presence of the tested complexes.
Cells monolayers were washed twice with cold phosphate-buffered saline (PBS), harvested, and counted. Samples were subjected to three freeze–thaw cycles at −80 °C, and then vigorously vortexed. The samples were treated with highly pure nitric acid (1 mL; Pt ≤ 0.01 mg kg^−1, Trace-SELECT Ultra, Sigma Chemical Co.) and transferred into a microwave Teflon vessel. Subsequently, samples were submitted to standard mineralization procedures. Samples were analyzed for platinum by using a Varian AA Duo graphite furnace atomic absorption spectrometer (Varian, Palo Alto, CA; USA) at a wavelength of […]. The calibration curve was obtained using known concentrations of standard solutions purchased from Sigma Chemical Co.

## NC1CC=CCC1N.O=C([O-])C(=O)[O-].O=C([O-])c1ccccc1.O=C([O-])c1ccccc1.[Pt+4] (mixture of isomers) [Complex 3, cis,trans,cis-[Pt(OXA)(BzO)2(DACHEX)]]
[1]
  Cathodic reduction potential Ep^c: −0.99 V
[2]
  efficacy in decreasing cancer spheroid viability, times higher than CDDP: about 32
  efficacy in decreasing cancer spheroid viability, times higher than OXP: ~20
  IC50: 1800 ± 400 nM
[3]
  effectiveness against sensitive (LoVo) versus resistant (LoVo-OXP) cells: equally effective
  IC50: 90 ± 20 nM
[4]
  cellular uptake (cellular internalization of Pt), in words: the most effective in entering cancer cells

## CC(=O)[O][Pt]1([Cl])[O]C(=O)C(=O)[O]1.NC1CC=CCC1N (racemic) [Complex 5, cis,trans,cis-[Pt(OXA)(AcO)Cl(DACHEX)]]
[1]
  Cathodic reduction potential Ep^c: −0.82 V
[2]
  IC50: 26400 ± 5500 nM
[3]
  IC50: > 2000 nM
[4]
  cellular uptake (cellular internalization of Pt), in words: the worst in crossing the cell plasmalemma

## NC1CC=CCC1N.O=C1[O][Pt]([OH])([Cl])[O]C1=O (racemic) [Complex 6, cis,trans,cis-[Pt(OXA)(OH)Cl(DACHEX)]]
[1]
  Cathodic reduction potential Ep^c: −0.48 V
[2]
  IC50: 30200 ± 3800 nM
[3]
  IC50: > 2000 nM
[4]
  cellular uptake (cellular internalization of Pt), in words: the worst in crossing the cell plasmalemma
